Results from patent publication US12655465B2, “System for detecting and characterizing a microorganism” (Q-Linea AB, priority 2016, dated 2026).
In brackets after ≈: the same amount, converted by molar mass.

Key:
E. coli [1] = experiment: MIC with Macrobroth dilution; type: cell-based; conditions: reference method; for MIC: Escherichia coli
E. coli [2] = experiment: AST by flow cytometry type counting of individual bacteria (Aquila 400), MIC from differential growth; type: cell-based; conditions: Aquila 400 counting; for MIC: Escherichia coli
Method: The sample was enriched for bacteria and at the same time the culture media was changed, in this case to Mueller-Hinton media (MH-media). E. coli bacteria were recovered via filtration through a 0.2 μm filter and the recovered bacteria were resuspended in MH-media to a concentration of approximately 10^8 CFU/ml in Müller Hinton broth before being diluted to approximately 10^6 CFU/ml in Müller Hinton Broth. Antibiotic solutions were prepared in a series of 2:1 serial dilutions in Müller Hinton broth at 10× test concentrations. The range of antibiotic concentrations was chosen based on identity of the bacteria and the antibiotic. As the microorganism identified in Example 1 was E. coli in this case the following antibiotics were selected for use in the antimicrobial susceptibility test: Ciprofloxacin, Piperacillin+Tazobactam, Cefotaxime, Ceftazidim, Meropenem and Gentamicin. A series of eight different concentrations was selected based on known clinical MIC values. Eight sample tubes containing 100 μl antibiotic solution at eight different concentrations and 800 μl Müller Hinton broth were prepared. One additional tube contains 900 μl Müller Hinton broth and no antibiotic as positive control. 100 μl bacterial suspension (10^6 CFU/ml) was added to all nine tubes. A negative control sample comprising 1000 μl Müller Hinton broth (i.e., no bacteria) is prepared as negative control. All tubes were incubated at 35° C. and samples were taken after 0, 4, 6 and 24 hours. Bacterial samples were prepared for counting as in Example 2. Bacterial AST profiles were determined using a flow cytometry based counting of individual bacteria in an Aquila 400™ instrument (Q-linea AB, Sweden). Aquila 400 analysis was performed using the alexa 488™ laser. It was evident from the analysis performed at different time points that 4 hours was sufficient for detecting differential bacterial growth at the different concentration of antibiotics and thus to determine antibiotic susceptibility. Shorter times have been shown in the literature so this is not unexpected. MIC values for each antibiotic at different time points and cut-off values were calculated based on the differential bacterial growth. Values obtained by this method compared favorably with previously reported clinical MIC values and are shown below.

E. coli [3] = conditions: determined by another lab; cited from earlier work
[4] = cut-off 5%, 4 hours incubation at 35° C. in Müller Hinton broth
[5] = 4 h, cut-off 5%, 4 hours incubation at 35° C. in Müller Hinton broth, read-out: MIC, 4 hours
[6] = 4 h, cut-off 10%, 4 hours, read-out: MIC, 4 hours
[7] = 4 h, cut-off 15%, 4 hours, read-out: MIC, 4 hours
[8] = 4 h, cut-off 20%, 4 hours, read-out: MIC, 4 hours
[9] = 6 h, cut-off 5%, 6 hours, read-out: MIC, 6 hours
[10] = 6 h, cut-off 10%, 6 hours, read-out: MIC, 6 hours
[11] = 6 h, cut-off 15%, 6 hours, read-out: MIC, 6 hours
[12] = 6 h, cut-off 20%, 6 hours, read-out: MIC, 6 hours
[13] = 24 h, cut-off 5%, 24 hours, read-out: MIC, 24 hours
[14] = 24 h, cut-off 10%, 24 hours, read-out: MIC, 24 hours
[15] = 24 h, cut-off 15%, 24 hours, read-out: MIC, 24 hours
[16] = 24 h, cut-off 20%, 24 hours, read-out: MIC, 24 hours

Row | Molecule | MIC with Macrobroth dilution (E. coli [1]) [µg/mL] | MIC, 4 hours (E. coli [2]; [4]) [µg/mL] | MIC, 6 hours (E. coli [2]; cut-off 5%, 6 hours) [µg/mL] | MIC, 24 hours (E. coli [2]; cut-off 5%, 24 hours) [µg/mL] | MIC, 4 hours (E. coli [2]; cut-off 10%, 4 hours) [µg/mL] | MIC, 6 hours (E. coli [2]; cut-off 10%, 6 hours) [µg/mL] | MIC, 24 hours (E. coli [2]; cut-off 10%, 24 hours) [µg/mL] | MIC, 4 hours (E. coli [2]; cut-off 15%, 4 hours) [µg/mL] | MIC with E-test (E. coli [3]) [µg/mL] | MIC (E. coli [1]) [µg/mL] | MIC (E. coli [2]; [7]) [µg/mL] | MIC (E. coli [2]; [8]) [µg/mL] | MIC (E. coli [2]; [9]) [µg/mL] | MIC (E. coli [2]; [10]) [µg/mL] | MIC (E. coli [2]; [11]) [µg/mL] | MIC (E. coli [2]; [12]) [µg/mL] | MIC (E. coli [2]; [13]) [µg/mL] | MIC (E. coli [2]; [14]) [µg/mL] | MIC (E. coli [2]; [15]) [µg/mL] | MIC (E. coli [2]; [16]) [µg/mL] | further results
1 | Gentamicin | 0.5 to 1 | 1 | 0.5 | 1 | 0.5 | 0.5 | 1 | 0.5 | 1 | – | – | – | – | – | – | – | – | – | – | – | MIC, 6 hours (E. coli [2]; cut-off 15%, 6 hours): 0.5 µg/mL; MIC, 24 hours (E. coli [2]; cut-off 15%, 24 hours): 1 µg/mL; MIC, 4 hours (E. coli [2]; cut-off 20%, 4 hours): 0.5 µg/mL; MIC, 6 hours (E. coli [2]; cut-off 20%, 6 hours): 0.5 µg/mL; MIC, 24 hours (E. coli [2]; cut-off 20%, 24 hours): 1 µg/mL
2 | CC(C)(O/N=C(\C(=O)N[C@@H]1C(=O)N2C(C(=O)[O-])=C(C[n+]3ccccc3)CS[C@H]12)c1csc(N)n1)C(=O)O [Ceftazidime] | – | – | – | – | – | – | – | – | ≤ 0.5 | 0.25 (≈ 0.457 µM) | 0.125 (≈ 0.229 µM) | 0.125 (≈ 0.229 µM) | 0.125 (≈ 0.229 µM) | 0.125 (≈ 0.229 µM) | 0.125 (≈ 0.229 µM) | 0.125 (≈ 0.229 µM) | 0.25 (≈ 0.457 µM) | 0.25 (≈ 0.457 µM) | 0.25 (≈ 0.457 µM) | 0.25 (≈ 0.457 µM) | MIC (E. coli [2]; [5]): 0.25 µg/mL (≈ 0.457 µM); MIC (E. coli [2]; [6]): 0.25 µg/mL (≈ 0.457 µM)
3 | O=C(O)c1cn(C2CC2)c2cc(N3CCNCC3)c(F)cc2c1=O [Ciprofloxacin] | – | – | – | – | – | – | – | – | ≤ 0.03 | 0.016 (≈ 0.0483 µM) | 0.008 (≈ 0.0241 µM) | 0.008 (≈ 0.0241 µM) | 0.008 (≈ 0.0241 µM) | 0.008 (≈ 0.0241 µM) | 0.008 (≈ 0.0241 µM) | 0.004 (≈ 0.0121 µM) | 0.008 (≈ 0.0241 µM) | 0.008 (≈ 0.0241 µM) | 0.008 (≈ 0.0241 µM) | 0.008 (≈ 0.0241 µM) | MIC (E. coli [2]; [5]): 0.016 µg/mL (≈ 0.0483 µM); MIC (E. coli [2]; [6]): 0.008 µg/mL (≈ 0.0241 µM)
4 | Piperacillin and Tazobactam | 4 to 8 | 4 | 4 | 4 | 4 | 4 | 4 | 4 | 2 | – | – | – | – | – | – | – | – | – | – | – | MIC, 6 hours (E. coli [2]; cut-off 15%, 6 hours): 4 µg/mL; MIC, 24 hours (E. coli [2]; cut-off 15%, 24 hours): 4 µg/mL; MIC, 4 hours (E. coli [2]; cut-off 20%, 4 hours): 4 µg/mL; MIC, 6 hours (E. coli [2]; cut-off 20%, 6 hours): 2 µg/mL; MIC, 24 hours (E. coli [2]; cut-off 20%, 24 hours): 2 µg/mL
5 | C[C@@H](O)[C@H]1C(=O)N2C(C(=O)O)=C(S[C@@H]3CN[C@H](C(=O)N(C)C)C3)[C@H](C)[C@H]12 [Meropenem] | – | – | – | – | – | – | – | – | ≤ 0.25 | 0.25 to 0.5 (≈ 0.652 to 1.3 µM) | – | 0.5 (≈ 1.3 µM) | – | – | 0.5 (≈ 1.3 µM) | 0.25 (≈ 0.652 µM) | 0.5 (≈ 1.3 µM) | 0.5 (≈ 1.3 µM) | 0.25 (≈ 0.652 µM) | 0.125 (≈ 0.326 µM) | –
6 | CO/N=C(\C(=O)N[C@@H]1C(=O)N2C(C(=O)O)=C(COC(C)=O)CS[C@H]12)c1csc(N)n1 [Cefotaxime] | – | – | – | – | – | – | – | – | ≤ 0.5 | 0.125 (≈ 0.274 µM) | 0.06 (≈ 0.132 µM) | 0.06 (≈ 0.132 µM) | 0.06 (≈ 0.132 µM) | 0.06 (≈ 0.132 µM) | 0.03 (≈ 0.0659 µM) | 0.03 (≈ 0.0659 µM) | 0.125 (≈ 0.274 µM) | 0.125 (≈ 0.274 µM) | 0.06 (≈ 0.132 µM) | 0.06 (≈ 0.132 µM) | –
